Results from patent US20080009418A1, “Selective Inhibitors” (Alchemia LTD., priority 2004, published 2008).

How the values were obtained:
Mouse urotensin (mUR2) = molecular target: T1, Mouse urotensin (mUR2) (Mus musculus, UniProt Q8VIH9); assay: Radioligand binding, mouse urotensin mUR2 membranes, FlashPlate, [125I]-Urotensin II; conditions: compound at 10 μM; [125I]-Urotensin II, FlashPlate
T1 construct: purchased Perkin Elmer Biosignal
T1 sequence (Q8VIH9 1-385): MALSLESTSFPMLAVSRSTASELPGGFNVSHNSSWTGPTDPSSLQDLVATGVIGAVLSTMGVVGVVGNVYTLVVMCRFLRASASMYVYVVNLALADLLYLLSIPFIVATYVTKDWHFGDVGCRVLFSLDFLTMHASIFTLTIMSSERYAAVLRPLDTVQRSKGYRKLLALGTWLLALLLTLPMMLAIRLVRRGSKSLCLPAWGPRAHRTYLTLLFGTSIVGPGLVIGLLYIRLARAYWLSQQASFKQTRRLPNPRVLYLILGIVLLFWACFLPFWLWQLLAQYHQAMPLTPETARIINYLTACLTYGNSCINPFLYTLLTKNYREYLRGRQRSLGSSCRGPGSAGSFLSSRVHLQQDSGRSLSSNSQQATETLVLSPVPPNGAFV
Method in brief: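 Cloned mouse urotensin (mUR2) receptor membranes from Perkin Elmer Biosignal were immobilized in FlashPlate microplates using a proprietary coating. Each well got 19.5 μl buffer, then 0.5 μl of DMSO, reference ligand, or compound. Adding 5 μl of [125I]-Urotensin II, diluted to 5× final concentration in binding buffer, started binding. Plates were sealed with TopSeal-A and incubated 1 hour at room temperature in the dark. Wells were counted for 30 seconds each on a TopCount after a 60-second delay, and percentage inhibition was calculated.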

Human opioid (ORL1) = molecular target: T2, Human opioid (ORL1) (Homo sapiens, UniProt P41146); assay: Radioligand binding, human opioid ORL1 membranes, FlashPlate, [125I]-Nociceptin; conditions: compound at 10 μM; [125I]-Nociceptin, FlashPlate
T2 construct: purchased Perkin Elmer Biosignal
T2 sequence (P41146 whole entry): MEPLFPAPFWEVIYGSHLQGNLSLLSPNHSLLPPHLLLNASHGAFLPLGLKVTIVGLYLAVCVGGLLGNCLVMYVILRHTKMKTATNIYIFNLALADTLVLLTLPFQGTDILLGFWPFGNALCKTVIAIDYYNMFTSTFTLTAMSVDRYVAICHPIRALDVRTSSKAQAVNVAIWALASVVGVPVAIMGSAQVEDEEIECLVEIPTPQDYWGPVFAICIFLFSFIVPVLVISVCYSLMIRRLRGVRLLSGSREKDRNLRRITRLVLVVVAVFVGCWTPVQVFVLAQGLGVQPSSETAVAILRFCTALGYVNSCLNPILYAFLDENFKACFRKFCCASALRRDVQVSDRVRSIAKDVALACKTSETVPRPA
Method in brief: (§1)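 Cloned human receptor membranes were coated onto FlashPlate wells and incubated with radioligand and compound (added from a 0.5 mM DMSO daughter plate) for 1 hour at room temperature in the dark. Scintillation counting gave percent inhibition, with DMSO defining total and reference ligand defining non-specific binding.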

[1] = molecular target: T3, Human melanin-concentrating hormone (MCH1) (Homo sapiens, UniProt Q99705); assay: Radioligand binding, human melanin-concentrating hormone MCH1 membranes, FlashPlate, [125I]-S36057; conditions: compound at 10 μM; [125I]-S36057, FlashPlate
T3 construct: purchased Perkin Elmer Biosignal
T3 sequence (Q99705 whole entry): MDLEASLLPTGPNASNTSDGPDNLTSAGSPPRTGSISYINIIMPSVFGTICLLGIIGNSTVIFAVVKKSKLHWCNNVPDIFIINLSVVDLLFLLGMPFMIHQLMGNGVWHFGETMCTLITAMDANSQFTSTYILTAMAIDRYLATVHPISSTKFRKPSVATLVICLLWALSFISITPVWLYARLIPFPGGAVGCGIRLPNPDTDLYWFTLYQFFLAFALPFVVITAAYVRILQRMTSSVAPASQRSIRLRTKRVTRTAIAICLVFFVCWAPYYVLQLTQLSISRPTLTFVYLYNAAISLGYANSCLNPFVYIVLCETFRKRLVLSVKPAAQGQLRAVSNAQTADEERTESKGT
Method in brief: as §1

Human κ-Opioid (KOP) = molecular target: T4, Human κ-Opioid (KOP) (Homo sapiens, UniProt P41145); assay: Radioligand binding, human κ-opioid (KOP) membranes, filtration, [3H]-Diprenorphine; conditions: compound at 10 μM; [3H]-Diprenorphine, filtration
T4 construct: purchased Perkin Elmer Biosignal
T4 sequence (P41145 whole entry): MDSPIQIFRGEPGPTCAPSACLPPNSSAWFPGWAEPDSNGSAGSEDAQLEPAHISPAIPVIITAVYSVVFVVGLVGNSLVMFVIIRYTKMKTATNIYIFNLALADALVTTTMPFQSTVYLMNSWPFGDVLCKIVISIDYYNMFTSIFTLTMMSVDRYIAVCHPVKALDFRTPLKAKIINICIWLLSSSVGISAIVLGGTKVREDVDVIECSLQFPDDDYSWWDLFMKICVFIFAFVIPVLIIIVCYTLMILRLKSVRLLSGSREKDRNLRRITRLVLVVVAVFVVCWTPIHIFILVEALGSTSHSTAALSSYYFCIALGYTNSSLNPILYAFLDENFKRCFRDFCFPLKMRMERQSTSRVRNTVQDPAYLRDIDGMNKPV
Method in brief: (§2)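 Percent inhibition of radioligand binding measured on recombinant human membranes: NK1 with [125I]-Substance P, KOP with [3H]-Diprenorphine. Incubation 1 h at room temperature, then harvest onto 0.3% PEI-soaked filters, cold Tris-HCl pH 7.4 washes and scintillation counting; non-specific binding from reference ligand wells.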

Human δ-opioid (DOP) = molecular target: T5, Human δ-opioid (DOP) (Homo sapiens, UniProt P41143); assay: Radioligand binding, human δ-opioid (DOP) membranes, FlashPlate, [3H]-Bremazocine; conditions: compound at 10 μM; [3H]-Bremazocine, FlashPlate
T5 construct: purchased Perkin Elmer Biosignal
T5 sequence (P41143 whole entry): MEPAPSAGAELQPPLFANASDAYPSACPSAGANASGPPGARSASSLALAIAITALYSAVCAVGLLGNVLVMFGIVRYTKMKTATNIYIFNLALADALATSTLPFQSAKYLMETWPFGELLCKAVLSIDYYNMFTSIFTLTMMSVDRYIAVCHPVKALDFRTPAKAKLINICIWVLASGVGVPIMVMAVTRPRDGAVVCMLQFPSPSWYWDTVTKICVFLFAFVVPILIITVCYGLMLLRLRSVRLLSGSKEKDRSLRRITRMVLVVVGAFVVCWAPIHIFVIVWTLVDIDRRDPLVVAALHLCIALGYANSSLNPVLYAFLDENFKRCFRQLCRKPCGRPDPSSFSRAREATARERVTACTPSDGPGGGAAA
Method in brief: as §1

Human neurokinin (NK1) = molecular target: T6, Human neurokinin (NK1) (Homo sapiens, UniProt P25103); assay: Radioligand binding, human neurokinin NK1 membranes, filtration, [125I]-Substance P; conditions: compound at 10 μM; [125I]-Substance P, filtration
T6 construct: purchased Perkin Elmer Biosignal
T6 sequence (P25103 whole entry): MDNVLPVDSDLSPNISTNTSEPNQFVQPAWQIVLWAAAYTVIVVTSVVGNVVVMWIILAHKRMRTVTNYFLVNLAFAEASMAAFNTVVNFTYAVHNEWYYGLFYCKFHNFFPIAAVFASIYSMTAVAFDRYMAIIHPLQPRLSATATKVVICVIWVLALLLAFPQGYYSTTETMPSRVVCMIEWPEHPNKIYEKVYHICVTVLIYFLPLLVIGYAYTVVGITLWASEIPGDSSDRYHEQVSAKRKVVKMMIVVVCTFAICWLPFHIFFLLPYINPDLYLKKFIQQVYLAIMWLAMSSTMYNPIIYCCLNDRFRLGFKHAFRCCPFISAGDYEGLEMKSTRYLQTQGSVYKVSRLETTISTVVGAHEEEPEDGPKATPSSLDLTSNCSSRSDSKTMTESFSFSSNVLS
Method in brief: as §2

[2] = molecular target: T7, Human neuropeptide Y (NPY-Y1) (Homo sapiens, UniProt P25929); assay: Radioligand binding, human neuropeptide Y NPY-Y1 membranes, FlashPlate, [125I]-PYY; conditions: compound at 10 μM; [125I]-PYY, FlashPlate
T7 construct: purchased Perkin Elmer Biosignal
T7 sequence (P25929 1-384): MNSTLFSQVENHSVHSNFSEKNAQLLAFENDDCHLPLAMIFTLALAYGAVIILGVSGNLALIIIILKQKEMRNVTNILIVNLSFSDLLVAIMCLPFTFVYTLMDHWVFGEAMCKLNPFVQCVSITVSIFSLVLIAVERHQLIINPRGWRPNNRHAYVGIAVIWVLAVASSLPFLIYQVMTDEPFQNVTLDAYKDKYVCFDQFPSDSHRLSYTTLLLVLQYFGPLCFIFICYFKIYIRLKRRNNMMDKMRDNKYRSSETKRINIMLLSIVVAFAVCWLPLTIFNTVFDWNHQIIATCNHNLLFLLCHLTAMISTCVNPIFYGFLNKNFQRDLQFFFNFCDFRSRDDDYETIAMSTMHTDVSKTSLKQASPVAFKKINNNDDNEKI
Method in brief: as §1

Human melanocortin (MC5) = molecular target: T8, Human melanocortin (MC5) (Homo sapiens, UniProt P33032); assay: Radioligand binding, human melanocortin MC5 membranes, FlashPlate, [125I]-NDP-αMSH; conditions: compound at 10 μM; [125I]-NDP-αMSH, FlashPlate
T8 construct: purchased Perkin Elmer Biosignal
T8 sequence (P33032 whole entry): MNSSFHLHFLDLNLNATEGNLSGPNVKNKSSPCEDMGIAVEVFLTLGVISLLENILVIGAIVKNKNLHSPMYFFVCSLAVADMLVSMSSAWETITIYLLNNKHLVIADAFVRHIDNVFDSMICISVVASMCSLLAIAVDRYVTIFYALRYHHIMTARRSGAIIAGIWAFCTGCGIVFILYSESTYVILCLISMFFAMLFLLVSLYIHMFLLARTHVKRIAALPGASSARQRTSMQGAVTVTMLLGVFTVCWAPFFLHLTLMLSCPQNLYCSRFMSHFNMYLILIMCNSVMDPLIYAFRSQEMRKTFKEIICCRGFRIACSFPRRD
Method in brief: as §1

Human μ-opioid (MOP) = molecular target: T9, Human μ-opioid (MOP) (Homo sapiens, UniProt P35372); assay: Radioligand binding, human μ-opioid (MOP) membranes, FlashPlate, [3H]-Naloxone; conditions: compound at 10 μM; [3H]-Naloxone, FlashPlate
T9 construct: purchased Perkin Elmer Biosignal
T9 sequence (P35372 whole entry): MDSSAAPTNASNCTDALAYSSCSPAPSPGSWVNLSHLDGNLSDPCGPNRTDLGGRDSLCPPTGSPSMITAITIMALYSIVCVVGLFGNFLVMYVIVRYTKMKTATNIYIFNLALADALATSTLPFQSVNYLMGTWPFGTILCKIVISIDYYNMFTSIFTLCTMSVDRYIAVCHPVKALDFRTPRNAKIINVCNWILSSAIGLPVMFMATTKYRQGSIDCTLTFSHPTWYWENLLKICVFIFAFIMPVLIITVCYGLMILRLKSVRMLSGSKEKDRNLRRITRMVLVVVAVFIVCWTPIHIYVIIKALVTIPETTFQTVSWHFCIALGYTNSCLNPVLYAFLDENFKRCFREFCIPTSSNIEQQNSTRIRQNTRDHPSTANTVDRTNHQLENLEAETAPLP
Method in brief: as §1

Human Melanocortin (MC3) = molecular target: T10, Human Melanocortin (MC3) (Homo sapiens, UniProt P41968); assay: Radioligand binding, human melanocortin MC3 membranes, FlashPlate, [125I]-NDP-αMSH; conditions: compound at 10 μM; [125I]-NDP-αMSH, FlashPlate
T10 construct: purchased Perkin Elmer Biosignal
T10 sequence (P41968 whole entry): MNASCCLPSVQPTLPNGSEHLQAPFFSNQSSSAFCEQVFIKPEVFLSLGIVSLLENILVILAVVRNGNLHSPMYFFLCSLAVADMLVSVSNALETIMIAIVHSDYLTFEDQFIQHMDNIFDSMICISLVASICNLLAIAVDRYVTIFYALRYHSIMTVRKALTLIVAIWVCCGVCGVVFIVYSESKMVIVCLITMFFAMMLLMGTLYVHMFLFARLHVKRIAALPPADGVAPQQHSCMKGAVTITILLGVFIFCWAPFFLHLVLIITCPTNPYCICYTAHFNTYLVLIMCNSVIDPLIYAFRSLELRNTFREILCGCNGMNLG
Method in brief: as §1

Human Melanocortin (MC4) = molecular target: T11, Human Melanocortin (MC4) (Homo sapiens, UniProt P32245); assay: Radioligand binding, human melanocortin MC4 membranes, FlashPlate, [125I]-NDP-αMSH; conditions: compound at 10 μM; [125I]-NDP-αMSH, FlashPlate
T11 construct: purchased Perkin Elmer Biosignal
T11 sequence (P32245 whole entry): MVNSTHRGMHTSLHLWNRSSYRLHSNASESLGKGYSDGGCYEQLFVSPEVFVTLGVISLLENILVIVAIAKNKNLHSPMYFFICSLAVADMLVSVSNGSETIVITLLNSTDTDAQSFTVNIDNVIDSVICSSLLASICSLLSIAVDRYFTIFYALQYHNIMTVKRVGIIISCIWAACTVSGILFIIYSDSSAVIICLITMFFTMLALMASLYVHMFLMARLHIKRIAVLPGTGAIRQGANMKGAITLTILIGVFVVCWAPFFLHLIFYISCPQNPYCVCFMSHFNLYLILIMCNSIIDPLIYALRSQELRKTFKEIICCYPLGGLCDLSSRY
Method in brief: as §1

SMILES	A11: inhibition of radioligand binding (Mouse urotensin (mUR2))	A10: inhibition of radioligand binding (Human opioid (ORL1))	A6: inhibition of radioligand binding [1]	A2: inhibition of radioligand binding (Human κ-Opioid (KOP))	A1: inhibition of radioligand binding (Human δ-opioid (DOP))	A8: inhibition of radioligand binding (Human neurokinin (NK1))	A9: inhibition of radioligand binding [2]	A5: inhibition of radioligand binding (Human melanocortin (MC5))	A7: inhibition of radioligand binding (Human μ-opioid (MOP))	A3: inhibition of radioligand binding (Human Melanocortin (MC3))	A4: inhibition of radioligand binding (Human Melanocortin (MC4))
COCC1OC(OCc2ccc3ccccc3c2)C(NC(=O)CCNC(=N)N)C(OCc2ccc(Cl)cc2)C1O (stereo not drawn) [compound 238]	− (“−” indicates less than 50% inhibition at 10 μM)	+ (“+” indicates greater than 50% inhibition at 10 μM)	+ (“+” indicates greater than 50% inhibition at 10 μM)	− (“−” indicates less than 50% inhibition at 10 μM)	+ (“+” indicates greater than 50% inhibition at 10 μM)	+ (“+” indicates greater than 50% inhibition at 10 μM)	− (“−” indicates less than 50% inhibition at 10 μM)	+ (“+” indicates greater than 50% inhibition at 10 μM)	− (“−” indicates less than 50% inhibition at 10 μM)	+ (“+” indicates greater than 50% inhibition at 10 μM)	+ (“+” indicates greater than 50% inhibition at 10 μM)
COCC1OC(OCc2ccc3ccccc3c2)C(NC(=O)CCCN)C(OCc2ccc(Cl)cc2)C1O (stereo not drawn) [compound 239]	− (“−” indicates less than 50% inhibition at 10 μM)	− (“−” indicates less than 50% inhibition at 10 μM)	− (“−” indicates less than 50% inhibition at 10 μM)	− (“−” indicates less than 50% inhibition at 10 μM)	− (“−” indicates less than 50% inhibition at 10 μM)	+ (“+” indicates greater than 50% inhibition at 10 μM)	− (“−” indicates less than 50% inhibition at 10 μM)	+ (“+” indicates greater than 50% inhibition at 10 μM)	− (“−” indicates less than 50% inhibition at 10 μM)	− (“−” indicates less than 50% inhibition at 10 μM)	− (“−” indicates less than 50% inhibition at 10 μM)
COCC1OC(OCc2ccc3ccccc3c2)C(NC(=O)CCCNC(=N)N)C(OCc2ccc(Cl)cc2)C1O (stereo not drawn) [compound 240]	− (“−” indicates less than 50% inhibition at 10 μM)	+ (“+” indicates greater than 50% inhibition at 10 μM)	+ (“+” indicates greater than 50% inhibition at 10 μM)	+ (“+” indicates greater than 50% inhibition at 10 μM)	− (“−” indicates less than 50% inhibition at 10 μM)	+ (“+” indicates greater than 50% inhibition at 10 μM)	− (“−” indicates less than 50% inhibition at 10 μM)	+ (“+” indicates greater than 50% inhibition at 10 μM)	+ (“+” indicates greater than 50% inhibition at 10 μM)	+ (“+” indicates greater than 50% inhibition at 10 μM)	+ (“+” indicates greater than 50% inhibition at 10 μM)
COCC1OC(OCc2ccc3ccccc3c2)C(NC(=O)CN)C(OCc2ccc(-c3ccccc3)cc2)C1O (stereo not drawn) [compound 241]	− (“−” indicates less than 50% inhibition at 10 μM)	− (“−” indicates less than 50% inhibition at 10 μM)	− (“−” indicates less than 50% inhibition at 10 μM)	− (“−” indicates less than 50% inhibition at 10 μM)	− (“−” indicates less than 50% inhibition at 10 μM)	+ (“+” indicates greater than 50% inhibition at 10 μM)	− (“−” indicates less than 50% inhibition at 10 μM)	+ (“+” indicates greater than 50% inhibition at 10 μM)	− (“−” indicates less than 50% inhibition at 10 μM)	− (“−” indicates less than 50% inhibition at 10 μM)	+ (“+” indicates greater than 50% inhibition at 10 μM)
COCC1OC(OCc2ccc3ccccc3c2)C(NC(=O)CNC(=N)N)C(OCc2ccc(-c3ccccc3)cc2)C1O (stereo not drawn) [compound 242]	− (“−” indicates less than 50% inhibition at 10 μM)	− (“−” indicates less than 50% inhibition at 10 μM)	− (“−” indicates less than 50% inhibition at 10 μM)	− (“−” indicates less than 50% inhibition at 10 μM)	− (“−” indicates less than 50% inhibition at 10 μM)	+ (“+” indicates greater than 50% inhibition at 10 μM)	− (“−” indicates less than 50% inhibition at 10 μM)	+ (“+” indicates greater than 50% inhibition at 10 μM)	− (“−” indicates less than 50% inhibition at 10 μM)	+ (“+” indicates greater than 50% inhibition at 10 μM)	+ (“+” indicates greater than 50% inhibition at 10 μM)
COCC1OC(OCc2ccc3ccccc3c2)C(NC(=O)CCN)C(OCc2ccc(-c3ccccc3)cc2)C1O (stereo not drawn) [compound 243]	− (“−” indicates less than 50% inhibition at 10 μM)	− (“−” indicates less than 50% inhibition at 10 μM)	− (“−” indicates less than 50% inhibition at 10 μM)	− (“−” indicates less than 50% inhibition at 10 μM)	− (“−” indicates less than 50% inhibition at 10 μM)	+ (“+” indicates greater than 50% inhibition at 10 μM)	− (“−” indicates less than 50% inhibition at 10 μM)	+ (“+” indicates greater than 50% inhibition at 10 μM)	− (“−” indicates less than 50% inhibition at 10 μM)	− (“−” indicates less than 50% inhibition at 10 μM)	+ (“+” indicates greater than 50% inhibition at 10 μM)
